Data on 8 molecules can be found in PMC7684578, “Isopedopeptins A–H: Cationic Cyclic Lipodepsipeptides from Pedobacter cryoconitis UP508 Targeting WHO Top-Priority Carbapenem-Resistant Bacteria” (ACS Chemical Biology, 2020).

Values after ≈ are worked out from the molar mass of the structure shown. Starred links: 1 amine or outer side, 2 acyl side, 3 side chain; linkers in the order of their positions; H or OH if unused. Positions of bridges follow the written chain, without caps; N, C: chain ends. Non-standard residues stand in square brackets, D forms with d. Residues, ends and D or L forms follow the SMILES beside them. X4 = CC(C)CCC=CCCC[C@H](CC(=O)[*:1])O[*:2]; X6 = CC(C)CCCCC=CC[C@H](CC(=O)[*:1])O[*:2]; X5 = CC(C)CCCCCCC[C@H](CC(=O)[*:1])O[*:2]; X3 = CC(C)CCCCC[C@H](CC(=O)[*:1])O[*:2]; X7 = CCCCCCC=CC[C@H](CC(=O)[*:1])O[*:2]; X2 = CCCCCCC[C@H](CC(=O)[*:1])O[*:2]; Val(3-OH) = CC(C)(O)[C@H](N)C(=O)O; X1 = C/C=C(/N[*:1])C(=O)[*:2]; Dab = NCC[C@H](N)C(=O)O; Dap = NC[C@H](N)C(=O)O

For test [1], the system named is K. pneumoniae LMG20218. The test can be described thus: MIC, broth micro-dilution, primary panel. The following applies: for MIC K. pneumoniae LMG20218: ESBL; for MIC: Klebsiella pneumoniae, LMG20218, ESBL. Format: cell-based, Klebsiella pneumoniae. The protocol: (§1) Isopedopeptin E (5): off-white solid; [α] D20 –36° (c 0.3 in methanol); UV (MeOH) λ max (log10 ε) 240 (3.8); 1H NMR (DMSO-d 6, 600 MHz), see Table S5; 13C NMR (DMSO-d 6, 150 MHz), see Table […]
(§2) Isopedopeptin F (6): off-white solid; [α] D20 –32° (c 0.05 in methanol); UV (MeOH) λ max (log10 ε) 240 (3.8); 1H NMR (DMSO-d 6, 600 MHz), see Table S6; 13C NMR (DMSO-d 6, 150 MHz), see Table […]
(§3) Isopedopeptin G (7): off-white solid; [α] D20 –49° (c 0.1 in methanol); UV (MeOH) λ max (log10 ε) 240 (4.0); 1H NMR (DMSO-d 6, 600 MHz), see Table S7; 13C NMR (DMSO-d 6, 150 MHz), see Table […]
(§4) Isopedopeptin H (8): off-white solid; [α] D20 –56° (c 0.2 in methanol); UV (MeOH) λ max (log10 ε) 240 (4.0); 1H NMR (DMSO-d 6, 600 MHz), see Table S8; 13C NMR (DMSO-d 6, 150 MHz), see Table […]
(§5) Minimal Inhibitory Concentration (MIC) against the primary panel of microorganisms.
(§6) The MIC for compounds 1–8 was measured by means of a broth micro-dilution method in 96-wells microtiter plates with the addition of E. coli LMG15862, LMG1041 T, E. cloacaeA. baumannii […]
(§7) H-29 and A. fumigatus J7, as test organisms. The test media were AM3 Broth (BD Difco Ltd) mixed with phosphate buffered saline (PBS, Amresco LLC, Solon, USA) in 1:4 ratio (E. coli, A. baumannii, E. cloacae, K. pneumoniae and P. aeruginosa), AM3 Broth mixed with PBS in 1:1 ratio (S. aureus), ME (A. fumigatus) and ISP2 (C. albicans). Prior to MIC determination, the cell concentration of tested bacterial/fungal pathogens was adjusted to ≅ 4 × 10^5 CFU/mL (acceptable range 2 – 6 × 10^5 CFU/mL). Cell concentration was confirmed by colony counting after diluting and plating the respective bacterial pathogen on VPA plates [VPA, 10 g Vegetable Peptone Broth (Oxoid Ltd., Basingstoke,UK), 15 g Bacto Agar (Difco Ltd, Tyrone) in 1 L deionised water] directly after each of MIC-tests. The cells of C. albicans were plated on ISP2 agar plates [ISP2, 15 g Bacto Agar (Difco Ltd) in 1 L deionised water] and respectively spores of A. fumigatus were plated on MEA plates.
(§8) Plates were, subsequently, incubated at 37 °C in the dark, and viable colonies counted after 16 to 24 h.
(§9) To estimate MIC values (concentration range between 0.05 and 50 µg/mL), solutions of the tested compounds (100, 10 and 1 and if needed 0.1 µg/mL in MeOH) were dispensed into wells of microtiter plate(s) and the solvent was evaporated in a fume-hood. Subsequently, suspensions of pathogen cells in the appropriate medium were dispensed to the wells of microtiter plates and the growth of pathogens were observed after 16 to 20 h of incubation at 37 °C in the dark. Positive controls were the respective pathogen cells suspended in untreated sterile media without addition of compounds(s) and negative controls were the media only. MIC values were defined as the lowest concentration of each compound with no visible growth of pathogen. All MIC tests were performed in triplicate and […]
(§10) MIC determination for compound 2 against an extended panel of bacterial strains.
(§11) Compound 2 was evaluated against a panel of Gram-negative bacteria (Hughes strain collection), including: A. baumannii ATCC 19606, wild-type; BM4454, multidrug-resistant clinical isolate; BM4652, efflux-defective derivative of BM4454; CH9622, colistin-resistant clinical isolate; E. coli ATCC 25922, wild-type; CH3130, efflux-defective ΔtolC mutant isogenic to ATCC 25922; D22, a drug-hypersensitive lpxC mutant of E. coli; CH3491, multidrug-resistant clinical isolate; CH9623 and CH9624, colistin-resistant clinical isolates carrying mcr-1; K. pneumoniae ATCC 13833, wild-type; […]
(§12) clinical isolate; CH9625 and CH9626, colistin-resistant clinical isolates; P. aeruginosa PAO1, wild-type; PAO750, efflux-defective mutant isogenic to PAO1. The in vitro antimicrobial activity of each compound was determined by measuring the MIC value using the broth micro-dilution technique in cation-adjusted Mueller-Hinton II broth (Becton-Dickinson, 212322) according to EUCAST and CLSI guidelines. Each compound prepared in MHII medium was dispensed into a 96-well round- […]

For test [2], the system named is P. aeruginosa LMG6395T. The test can be described thus: MIC, broth micro-dilution, primary panel. The following applies: WT; for MIC: Pseudomonas aeruginosa, LMG6395T. Format: cell-based, Pseudomonas aeruginosa. The procedure: as §1, §2, §3, §4, §5, §6, §7, §8, §9, §10, §11, §12

As for `C/C=C1/NC(=O)[C@H](CCN)NC(=O)[C@H](CC(C)C)NC(=O)[C@H](CN)NC(=O)C[C@@H](CCCCCC(C)C)OC(=O)[C@H](CC(=O)O)NC(=O)[C@H](C(C)(C)O)NC(=O)[C@@H](Cc2ccccc2)NC(=O)[C@H](CN)NC(=O)[C@H]([C@@H](C)O)NC1=O` [Compound 1, cyclo(3-hydroxy-9-methyldecanoyl-DAPA1-Leu-DABA-ABA-Thr-DAPA2-Phe-OHVal-Asp)] ([Dap]L[Dab][X1]T[Dap][dF][Val(3-OH)]D; linker N-C via X3), in test [1], the “MIC K. pneumoniae LMG20218” value came out at 8 µg/mL (≈ 7.07 µM) and the MIC lay within 8 to 16 µg/mL (≈ 7.07 to 14.1 µM). Moreover, in test [2], the MIC was 8 to 16 µg/mL (≈ 7.07 to 14.1 µM) and the “MIC P. aeruginosa LMG6395T” value stood at 16 µg/mL (≈ 14.1 µM).

For the molecule `C/C=C1/NC(=O)[C@H](CCN)NC(=O)[C@H](CC(C)C)NC(=O)[C@H](CN)NC(=O)C[C@@H](CCCCCCC)OC(=O)[C@H](CC(=O)O)NC(=O)[C@H](C(C)(C)O)NC(=O)[C@@H](Cc2ccccc2)NC(=O)[C@H](CN)NC(=O)[C@H]([C@@H](C)O)NC1=O` [Compound 2, isopedopeptin B] ([Dap]L[Dab][X1]T[Dap][dF][Val(3-OH)]D; linker N-C via X2), in test [1], the “MIC K. pneumoniae LMG20218” value stood at 16 µg/mL (≈ 14.3 µM) and the MIC was in the range of 8 to 16 µg/mL (≈ 7.16 to 14.3 µM). In test [2], the MIC lay within 8 to 16 µg/mL (≈ 7.16 to 14.3 µM) and the “MIC P. aeruginosa LMG6395T” value was 16 µg/mL (≈ 14.3 µM).

Take `C/C=C1/NC(=O)[C@H](CCN)NC(=O)[C@H](CC(C)C)NC(=O)[C@H](CN)NC(=O)C[C@@H](CC=CCCCCCC)OC(=O)[C@H](CC(=O)O)NC(=O)[C@H](C(C)(C)O)NC(=O)[C@@H](Cc2ccccc2)NC(=O)[C@H](CN)NC(=O)[C@H]([C@@H](C)O)NC1=O` [Compound 3, isopedopeptin C] ([Dap]L[Dab][X1]T[Dap][dF][Val(3-OH)]D; linker N-C via X7): the MIC in test [1] and in test [2] was 32 µg/mL (≈ 28 µM) each time.

As for `C/C=C1/NC(=O)[C@H](CCN)NC(=O)[C@H](CC(C)C)NC(=O)[C@H](CN)NC(=O)C[C@@H](CCCCCCC)OC(=O)[C@H](CC(=O)O)NC(=O)[C@H](C(C)C)NC(=O)[C@@H](Cc2ccccc2)NC(=O)[C@H](CN)NC(=O)[C@H]([C@@H](C)O)NC1=O` [Compound 4, isopedopeptin D] ([Dap]L[Dab][X1]T[Dap][dF]VD; linker N-C via X2), the MIC in test [1] and in test [2] was over 32 µg/mL each time.

As to `C/C=C1/NC(=O)[C@H](CCN)NC(=O)[C@H](CC(C)C)NC(=O)[C@H](CN)NC(=O)C[C@@H](CCCCCC(C)C)OC(=O)[C@H](CC(=O)O)NC(=O)[C@H](C(C)C)NC(=O)[C@@H](Cc2ccccc2)NC(=O)[C@H](CN)NC(=O)[C@H]([C@@H](C)O)NC1=O` [Compound 5, Isopedopeptin E] ([Dap]L[Dab][X1]T[Dap][dF]VD; linker N-C via X3), the MIC in test [1] and in test [2] was 32 µg/mL (≈ 28.7 µM) throughout.

On to `C/C=C1/NC(=O)[C@H](CCN)NC(=O)[C@H](CC(C)C)NC(=O)[C@H](CN)NC(=O)C[C@@H](CCCCCCCC(C)C)OC(=O)[C@H](CC(=O)O)NC(=O)[C@H](C(C)(C)O)NC(=O)[C@@H](Cc2ccccc2)NC(=O)[C@H](CN)NC(=O)[C@H]([C@@H](C)O)NC1=O` [Compound 6, Isopedopeptin F] ([Dap]L[Dab][X1]T[Dap][dF][Val(3-OH)]D; linker N-C via X5), for which the MIC in test [1] and in test [2] was 32 µg/mL (≈ 27.6 µM) in each case.

`C/C=C1/NC(=O)[C@H](CCN)NC(=O)[C@H](CC(C)C)NC(=O)[C@H](CN)NC(=O)C[C@@H](CCCC=CCCC(C)C)OC(=O)[C@H](CC(=O)O)NC(=O)[C@H](C(C)C)NC(=O)[C@@H](Cc2ccccc2)NC(=O)[C@H](CN)NC(=O)[C@H]([C@@H](C)O)NC1=O` [Compound 7, Isopedopeptin G] ([Dap]L[Dab][X1]T[Dap][dF]VD; linker N-C via X4): in test [1], the “MIC K. pneumoniae LMG20218” value came to 16 µg/mL (≈ 14 µM) and the MIC was in the range of 8 to 16 µg/mL (≈ 7.01 to 14 µM). Besides, in test [2], the MIC is 8 to 16 µg/mL (≈ 7.01 to 14 µM) and the “MIC P. aeruginosa LMG6395T” value came out at 8 µg/mL (≈ 7.01 µM).

Consider `C/C=C1/NC(=O)[C@H](CCN)NC(=O)[C@H](CC(C)C)NC(=O)[C@H](CN)NC(=O)C[C@@H](CC=CCCCCC(C)C)OC(=O)[C@H](CC(=O)O)NC(=O)[C@H](C(C)C)NC(=O)[C@@H](Cc2ccccc2)NC(=O)[C@H](CN)NC(=O)[C@H]([C@@H](C)O)NC1=O` [Compound 8, Isopedopeptin H] ([Dap]L[Dab][X1]T[Dap][dF]VD; linker N-C via X6), for which the MIC in test [1] and in test [2] was 16 µg/mL (≈ 14 µM) in each case.
